Results on one compound are retold here after paper PMC10785662 (ACS Omega, 2023).

A short description of series [1]: Pharmacokinetic assay in mice, plasma LC-MS/MS, two-compartment model. The format is in vivo, mouse.
Series [2] concerns KPC tumors. As to the kind of experiment: In vivo tumor growth study, KPC tumors in athymic nude mice. On the set-up: species or system mouse. As to conditions: 20 mg/kg IV, mice with KPC tumors.

On to `COc1cccc2c1C(=O)c1c(O)c3c(c(O)c1C2=O)C[C@@](O)(C(=O)CO)C[C@@H]3O[C@H]1C[C@H](N)[C@H](O)[C@H](C)O1` [doxorubicin, Doxorubicin], for which, in series [1] (male, ICR, mouse, plasma, iv, 6 mg/kg), the AUC (usually concentration integrated over time) stood at 0.26 µg·h/mL. In series [1] (mouse plasma, single IV dose 6.0 mg/kg doxorubicin-equivalent), the “T1/2β (terminal half-life)” value turned out to be 3.2 h. Besides, in series [2], the “time to toxicity-related fatality” value is on record as at most 1 week and the toxicity-related fatality result is recorded as “toxicity-related fatality in all mice”.
